Experimental data from patent US12329753B2, “Phosphodiesterase inhibitor treatment” (Cyrano Therapeutics, Inc., priority 2008, dated 2025).

How the values were obtained:
[1] = asthma therapy; cited from earlier work
[2] = test system: asthmatic patients; experiment: sGaw after inhaled dry powder in asthmatic patients, single blind study (Examples 5, 6); type: in vivo, human; conditions: dry powder 2 mg inhaled
Experimental: (§1) To test this theory, asthmatic patients are enrolled in a dose escalating single blind study. On arrival to the clinic, subjects are allowed to rest for 20 minutes before baseline measurements of FEV1 (six recordings) and sGaw (five recordings) are made. Subjects receive a dry powder dispenser loaded with a dose of 2 mg theophylline or a dry powder carrier. […] After each inhalation, measurements of sGaw are made at 1, 3, 5, 10, 15, 20, 25, and 30 minutes.
On completion of the last recording, subjects inhale a 200 μg dose of salbutamol from a metered inhaler and a further measurement of sGaw is made after 15 minutes. Subjects are also monitored for coughing and are questioned about the taste of the drug.
as §1, with “Asthmatic patients” for “To test this theory, asthmatic patients”, “of 1” for “of 2”, “mg IBMX formulated as a dry powder” for “mg theophylline”
On completion of the last recording, subjects inhale a 200 μg dose of salbutamol from a metered inhaler and a further measurement of sGaw mad after 15 minutes. Subjects are also be monitored for coughing and are questioned about the taste of the drug.

[3] = test system: cGMP; experiment: Parotid saliva cGMP, 96 plate spectrophotometric assay; type: in vivo, human; conditions: for saliva cGMP over initial values: improved patients; for change of saliva cGMP: unimproved patients
Experimental: Parotid saliva was collected from each patient by application of a Lashley cup over Stensen's duct with lingual stimulation by placement of concentrated lemon juice. Saliva was collected in plastic tubes and stored at −20° C. until assayed. cAMP and cGMP were measured in saliva by a sensitive 96 plate spectrophotometric assay (R&D Systems, Minneapolis, MN).
All patients were placed in a fixed design open label clinical trial with treatment with oral theophylline. Treatment consisted of fixed treatment periods of two-eight months with sequential doses of the drug at 200 mg, 400 mg and 600 mg. At termination of each of these intervals, patients returned to study site for reevaluation. At the end of each interval subjective responses to treatment were measured with a modification of the 0-100 scale previously used (vs). Subjective responses to treatment were graded on a sliding scale from −100-0-+100 with patients recording improvement (+0-+100), no improvement (0) or worsening (0—-100) of their overall smell function. If overall smell function improved ≥5% they were considered to improve clinically (1). If smell function improved <5% they were considered not to improve (1). At the end of each interval subjective measurements of smell function, measurements of DT, RT, ME and H and measurements of parotid saliva for levels of cAMP and cGMP were obtained. In addition, blood plasma was obtained by venipuncture, placed in ice into zinc free tubes which contained 100 mg zinc free heparin, centrifuged at 3000 rpm for 10-20 min, the plasma transferred to plastic PCR tubes and stored at −20° C. until assayed. Theophylline was assayed by a fluorescence polarization assay (Abbott, Chicago, IL), as previously described.
Data for the cyclic nucleotides from these 31 patients was not analyzed until the entire study of the 312 patients in Example 1 was assembled and analyzed in its entirety. After completion of these analyses, all data for parotid saliva cAMP and cGMP from all patients in whom salivary cAMP and cGMP were obtained were assembled. Levels of salivary cyclic nucleotides varied widely. Initially, without external criteria, there was no way to understand these disparate data. […] In a similar manner, measurements of each patient's plasma theophylline level at each dosage of theophylline (at 200 mg, 400 mg, 600 mg of theophylline) were catagorized. The two patient groups were also analyzed post hoc with respect to type of smell loss and etiology of smell loss.

For `Cn1c(=O)c2[nH]cnc2n(C)c1=O` [theophylline], the “therapeutic range for plasma concentrations” value [1] is given as 10 to 20 mg/L, the “increase in sGaw versus 200 μg salbutamol” value [2] is given as “comparable to that produced by salbutamol” and the “sGaw above baseline measurement” value ([2]; after 30 minutes) is given as 20%. For the same molecule, the “saliva cGMP over initial values” ([3]; oral 400 mg) was 275%, the “change of saliva cGMP” value ([3]; oral 400 mg) was “little change” and the “saliva cGMP over initial values” ([3]; oral 600 mg) was 338%. For the same molecule, the “change of saliva cGMP” value ([3]; oral 600 mg) was “no increase”.
